We go through one compound from ChEMBL document CHEMBL2401662, “The synthesis of neurotensin antagonist SR 48692 for prostate cancer research” (Bioorg Med Chem, 2013).

Calls of active or inactive are those of the source. The calls are words filed in the database; no cut-off is given here.

Assay [1] deals with LNCaP. The assay is described as follows: Cytotoxicity against human biculamide-resistant LNCAP cells at >/= 50 uM after 5 days by CellTitre Glo assay. Format: functional, cell-based.
Assay [2] deals with LNCaP. The assay is described as follows: Cytotoxicity against human LNCAP cells at >/= 50 uM after 5 days by CellTitre Glo assay. Format: functional, cell-based.
In assay [3] the test system is SK-OV-3. The experiment in a line: Cytotoxicity against human SKOV3 cells at 100 uM by MTS assay. Format: functional, cell-based. (In general: Tetrazolium dyes change colour on reduction, which living cells bring about.)
Assay [4] deals with SK-OV-3. The experiment in a line: Cytotoxicity against human SKOV3 cells at < 100 uM by MTS assay. Format: functional, cell-based.
The target in assay [5] is Neurotensin receptor type 1 (Rattus norvegicus, UniProt P20789). The assay is described as follows: Displacement of [125I]NT from rat NTR1 transfected in mouse LTK cells. Format: cell-based.
The target in assay [6] is Neurotensin receptor type 2 (Homo sapiens, UniProt O95665). The experiment in a line: Binding affinity to NTR2 (unknown origin).
A short description of assay [7]: Cytotoxicity against human C4-2B cells after 5 days by CellTitre Glo assay. Format: functional, cell-based. As to conditions: LNCaP C4-2B, 120 h.
In assay [8] the test system is LNCaP C4-2B. The assay is described as follows: Cytotoxicity against human C4-2B cells at >/= 50 uM after 5 days by CellTitre Glo assay. Format: functional, cell-based.
The target in assay [9] is T1, Sortilin (Homo sapiens, UniProt Q99523).
T1 sequence (Q99523 whole entry): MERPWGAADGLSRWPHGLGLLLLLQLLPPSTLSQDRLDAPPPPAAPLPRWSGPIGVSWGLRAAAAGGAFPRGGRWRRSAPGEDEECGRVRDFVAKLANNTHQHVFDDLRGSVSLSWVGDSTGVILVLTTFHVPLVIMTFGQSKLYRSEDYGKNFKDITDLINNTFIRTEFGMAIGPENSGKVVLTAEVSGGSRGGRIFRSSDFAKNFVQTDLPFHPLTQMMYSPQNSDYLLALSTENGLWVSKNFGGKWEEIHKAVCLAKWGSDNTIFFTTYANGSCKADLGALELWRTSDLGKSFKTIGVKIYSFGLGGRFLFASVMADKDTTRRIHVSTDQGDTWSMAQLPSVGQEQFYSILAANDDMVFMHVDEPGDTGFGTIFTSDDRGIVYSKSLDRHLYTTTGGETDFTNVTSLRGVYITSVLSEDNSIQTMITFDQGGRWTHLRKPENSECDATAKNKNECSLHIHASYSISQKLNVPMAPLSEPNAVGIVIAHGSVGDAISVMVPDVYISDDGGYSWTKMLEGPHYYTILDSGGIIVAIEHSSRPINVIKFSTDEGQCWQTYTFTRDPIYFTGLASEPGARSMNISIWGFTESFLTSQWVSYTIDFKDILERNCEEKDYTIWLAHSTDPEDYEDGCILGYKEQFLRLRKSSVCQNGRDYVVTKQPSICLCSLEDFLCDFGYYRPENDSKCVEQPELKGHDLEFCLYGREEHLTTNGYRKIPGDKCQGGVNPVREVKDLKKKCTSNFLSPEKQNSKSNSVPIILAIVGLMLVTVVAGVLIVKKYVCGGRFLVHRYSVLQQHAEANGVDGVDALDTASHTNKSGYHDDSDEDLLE
The experiment in a line: Binding affinity to NTR3 (unknown origin).

Sequence of Neurotensin receptor type 2 (O95665 whole entry): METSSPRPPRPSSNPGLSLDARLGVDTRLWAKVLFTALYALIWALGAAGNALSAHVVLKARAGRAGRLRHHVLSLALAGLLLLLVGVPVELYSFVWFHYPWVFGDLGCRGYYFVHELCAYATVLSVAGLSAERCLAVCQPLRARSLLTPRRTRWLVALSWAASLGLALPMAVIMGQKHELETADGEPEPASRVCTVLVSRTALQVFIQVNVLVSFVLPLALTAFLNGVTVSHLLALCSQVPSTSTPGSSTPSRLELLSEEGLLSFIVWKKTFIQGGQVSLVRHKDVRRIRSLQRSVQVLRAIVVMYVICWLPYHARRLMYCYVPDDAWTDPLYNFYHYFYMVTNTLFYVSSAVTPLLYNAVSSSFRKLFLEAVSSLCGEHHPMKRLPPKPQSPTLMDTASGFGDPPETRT
Sequence of Neurotensin receptor type 1 (P20789 whole entry): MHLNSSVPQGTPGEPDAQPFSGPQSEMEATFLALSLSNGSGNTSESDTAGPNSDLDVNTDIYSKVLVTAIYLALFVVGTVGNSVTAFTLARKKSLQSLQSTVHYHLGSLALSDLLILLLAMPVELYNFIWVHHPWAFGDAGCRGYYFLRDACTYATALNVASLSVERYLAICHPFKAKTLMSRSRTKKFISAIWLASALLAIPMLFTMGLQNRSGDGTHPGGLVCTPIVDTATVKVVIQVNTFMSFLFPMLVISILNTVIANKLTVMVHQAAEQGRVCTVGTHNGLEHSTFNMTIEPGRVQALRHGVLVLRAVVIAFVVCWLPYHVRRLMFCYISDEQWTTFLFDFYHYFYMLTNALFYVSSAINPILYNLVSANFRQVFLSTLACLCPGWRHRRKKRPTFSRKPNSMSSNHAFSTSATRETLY

One may read the Ki as a measure of affinity in units of concentration, obtained from inhibition or displacement. What is called IC50 is the concentration that gives 50% inhibition. Read a high IC50 as a need for much substance. As to `COc1cccc(OC)c1-c1cc(C(=O)NC2(C(=O)O)C3CC4CC(C3)CC2C4)nn1-c1ccnc2cc(Cl)ccc12` (centres undefined) [REMINERTANT], the outcome in assay [1], in assay [2], in [3] and in assay [8] was Active. Moreover, in assay [4], the result was inactive. Further, the Ki in assay [5] was determined as 0.0026 µM; in assay [6], 0.418 µM. For the same compound, the figures for the concentration for half-maximal inhibition (IC50) in [7] and in assay [9] were 30 µM and 0.238 µM, respectively.
